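These data come from cells grown in 96-well plates and exposed to compound for 48 hours at five concentrations. Definition used: TGI = concentration required for complete inhibition of growth.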
Tests used:
Assay in all cases: NCI-60 cell line screen, 48 h
HOP-62 NSCLC = system: HOP-62 NSCLC
SK-MEL-2 melanoma = system: SK-MEL-2 melanoma
SK-MEL-5 melanoma = system: SK-MEL-5 melanoma
MALME-3M melanoma = system: MALME-3M melanoma
SF-539 CNS = system: SF-539 CNS
786-0 renal = system: 786-0 renal
SR leukemia = system: SR leukemia
KM12 colon = system: KM12 colon
OVCAR-3 ovarian = system: OVCAR-3 ovarian
TK-10 renal = system: TK-10 renal
EKVX NSCLC = system: EKVX NSCLC
HCC-2998 colon = system: HCC-2998 colon
RXF-631 renal = system: RXF-631 renal
UACC-62 melanoma = system: UACC-62 melanoma
SNB-19 CNS = system: SNB-19 CNS
NCI-H460 lung = system: NCI-H460 lung
U251 CNS = system: U251 CNS
OVCAR-8 ovarian = system: OVCAR-8 ovarian
NCI-H226 lung = system: NCI-H226 lung
HCT-15 colon = system: HCT-15 colon
IGROV1 ovarian = system: IGROV1 ovarian
UO-31 renal = system: UO-31 renal
RXF 393 renal = system: RXF 393 renal
NCI-H522 lung = system: NCI-H522 lung
OVCAR-5 ovarian = system: OVCAR-5 ovarian
SK-OV-3 ovarian = system: SK-OV-3 ovarian
LXFL 529 NSCLC = system: LXFL 529 NSCLC
CCRF-CEM leukemia = system: CCRF-CEM leukemia
K-562 leukemia = system: K-562 leukemia
ACHN renal = system: ACHN renal
DMS 114 small cell lung = system: DMS 114 small cell lung
HT29 colon = system: HT29 colon
SK-MEL-28 melanoma = system: SK-MEL-28 melanoma
SW-620 colon = system: SW-620 colon
HOP-92 NSCLC = system: HOP-92 NSCLC
SNB-78 CNS = system: SNB-78 CNS
HL-60(TB) leukemia = system: HL-60(TB) leukemia
NCI-H23 lung = system: NCI-H23 lung
MOLT-4 leukemia = system: MOLT-4 leukemia
SN12C renal = system: SN12C renal
XF 498 CNS = system: XF 498 CNS
HOP-18 NSCLC = system: HOP-18 NSCLC
RPMI-8226 leukemia = system: RPMI-8226 leukemia
M19-MEL melanoma = system: M19-MEL melanoma
UACC-257 melanoma = system: UACC-257 melanoma
DMS 273 small cell lung = system: DMS 273 small cell lung
LOX IMVI melanoma = system: LOX IMVI melanoma
KM20L2 colon = system: KM20L2 colon
HCT-116 colon = system: HCT-116 colon
SNB-75 CNS = system: SNB-75 CNS
SF-295 CNS = system: SF-295 CNS
M14 melanoma = system: M14 melanoma
SF-268 CNS = system: SF-268 CNS
COLO 205 colon = system: COLO 205 colon
CAKI-1 renal = system: CAKI-1 renal
A498 renal = system: A498 renal

Measured: TGI

COc1cc2c(cc1OC)C(C#N)(Cc1ccccc1)N(C(=O)c1ccccc1)C=C2 (stereo not given)
76.1 µM: RXF 393 renal
62.9 µM: SK-MEL-5 melanoma
53.2 µM: DMS 114 small cell lung
87 µM: XF 498 CNS
not listed: CAKI-1 renal | A498 renal
> 100 µM: all other assays above

COc1ccc(C2SCc3nc4ccccc4n32)cc1 (stereo not given)
13.7 µM: RPMI-8226 leukemia
7.02 µM: HT29 colon
6.25 µM: KM20L2 colon
8.75 µM: HOP-92 NSCLC
4.54 µM: SNB-75 CNS
5.42 µM: NCI-H522 lung
53.6 µM: DMS 273 small cell lung
5.43 µM: HL-60(TB) leukemia
8.07 µM: DMS 114 small cell lung
66.5 µM: UO-31 renal
85.4 µM: U251 CNS
65.8 µM: A498 renal
14.9 µM: SK-MEL-5 melanoma
45.5 µM: MOLT-4 leukemia
4.13 µM: XF 498 CNS
not listed: HOP-62 NSCLC | 786-0 renal | SR leukemia | KM12 colon | HCC-2998 colon | RXF 393 renal | OVCAR-5 ovarian | UACC-257 melanoma | HCT-116 colon | COLO 205 colon
> 100 µM: all other assays above

— PubChem BioAssay (NCI)
